From ChEMBL document CHEMBL1201862, “PubChem BioAssay data set” (2004)
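Following 48 hours of exposure in 96-well plates, responses at five concentrations were used to interpolate endpoints linearly. At the GI50, growth is halved.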 Active and inactive are the calls of the source. Rule as the data show it: active = GI50 up to about 1.1 µM and inactive = higher.

What was measured:
Experiment in all cases: DTP human tumour cell line panel, 48 h
SNB-75 = tested on: SNB-75
OVCAR-5 = tested on: OVCAR-5
CCRF-CEM = tested on: CCRF-CEM
A498 = tested on: A498
PC-3 = tested on: PC-3
UO-31 = tested on: UO-31
SK-MEL-5 = tested on: SK-MEL-5
NCI-H522 = tested on: NCI-H522
MCF7 = tested on: MCF7
OVCAR-3 = tested on: OVCAR-3
HOP-92 = tested on: HOP-92
CAKI-1 = tested on: CAKI-1
HCT-116 = tested on: HCT-116
K562 = tested on: K562
HT-29 = tested on: HT-29
MOLT-4 = tested on: MOLT-4
U-251 = tested on: U-251
A549 = tested on: A549
NCI/ADR-RES = tested on: NCI/ADR-RES
NCI-H226 = tested on: NCI-H226

Measured: GI50

Cc1ccc(C(=O)N2CCN(C(=O)c3ccc(C)cc3)c3ccccc32)cc1
inactive: SNB-75 4.68 µM | OVCAR-5 > 63.7 µM | CCRF-CEM 1.6 µM | A498 5.2 µM | PC-3 2.86 µM | UO-31 4.76 µM | SK-MEL-5 3.15 µM | NCI-H522 1.85 µM | MCF7 2.48 µM | OVCAR-3 2.74 µM | HOP-92 16.4 µM | CAKI-1 7 µM | HCT-116 3.04 µM | K562 2.55 µM | HT-29 2.8 µM | MOLT-4 3.07 µM | U-251 1.9 µM | A549 7.48 µM

O=C(O)c1ccn(-c2cccc(-n3ccc(C(=O)O)n3)n2)n1
inactive: SNB-75 > 100 µM | OVCAR-5 > 100 µM | NCI/ADR-RES > 100 µM | CCRF-CEM > 100 µM | NCI-H226 > 100 µM | PC-3 > 100 µM | UO-31 > 100 µM | SK-MEL-5 > 100 µM | NCI-H522 > 100 µM | MCF7 > 100 µM | OVCAR-3 > 100 µM | CAKI-1 > 100 µM | HCT-116 > 100 µM | K562 > 100 µM | HT-29 > 100 µM | MOLT-4 > 100 µM | U-251 > 100 µM | A549 > 100 µM

CC(C)c1cc(Cl)nc(Cl)n1
inactive: SNB-75 > 100 µM | OVCAR-5 > 100 µM | NCI/ADR-RES > 100 µM | CCRF-CEM > 100 µM | A498 > 100 µM | NCI-H226 > 100 µM | PC-3 > 100 µM | UO-31 > 100 µM | SK-MEL-5 > 100 µM | NCI-H522 > 100 µM | MCF7 > 100 µM | OVCAR-3 > 100 µM | CAKI-1 > 100 µM | HCT-116 > 100 µM | K562 > 100 µM | HT-29 > 100 µM | MOLT-4 > 100 µM | U-251 > 100 µM | A549 > 100 µM

N=C(N)NNC(=O)C(=O)O
inactive: SNB-75 > 100 µM | OVCAR-5 > 100 µM | NCI/ADR-RES > 100 µM | CCRF-CEM > 100 µM | A498 > 100 µM | NCI-H226 > 100 µM | PC-3 > 100 µM | UO-31 > 100 µM | SK-MEL-5 > 100 µM | NCI-H522 > 100 µM | MCF7 > 100 µM | OVCAR-3 > 100 µM | CAKI-1 > 100 µM | HCT-116 > 100 µM | K562 > 100 µM | HT-29 > 100 µM | MOLT-4 > 100 µM | U-251 > 100 µM | A549 > 100 µM

CC1(C)OCC(C2OC(OC(=O)c3ccc([N+](=O)[O-])cc3)C3OC(C)(C)OC23)O1 (stereo unspecified)
inactive: SNB-75 16.6 µM | OVCAR-5 > 100 µM | NCI/ADR-RES 69.5 µM | CCRF-CEM > 100 µM | A498 > 100 µM | NCI-H226 > 100 µM | PC-3 > 100 µM | UO-31 66.1 µM | SK-MEL-5 > 100 µM | NCI-H522 75.5 µM | MCF7 > 100 µM | OVCAR-3 > 100 µM | CAKI-1 > 100 µM | HCT-116 > 100 µM | K562 > 100 µM | HT-29 > 100 µM | MOLT-4 > 100 µM | U-251 49 µM | A549 > 100 µM

COP(=O)(OC)C(NC(=O)C(F)(F)F)(c1ccccc1)C(F)(F)F (stereo unspecified)
inactive: SNB-75 > 100 µM | OVCAR-5 > 100 µM | CCRF-CEM > 100 µM | A498 > 100 µM | NCI-H226 > 100 µM | UO-31 > 100 µM | SK-MEL-5 > 100 µM | NCI-H522 > 100 µM | OVCAR-3 > 100 µM | HOP-92 > 100 µM | CAKI-1 > 100 µM | HCT-116 > 100 µM | K562 > 100 µM | HT-29 > 100 µM | MOLT-4 > 100 µM | U-251 > 100 µM | A549 > 100 µM

c1ccc([P+](CCSCCSCC[P+](c2ccccc2)(c2ccccc2)c2ccccc2)(c2ccccc2)c2ccccc2)cc1
inactive: SNB-75 > 100 µM | OVCAR-5 > 100 µM | NCI/ADR-RES > 100 µM | A498 > 100 µM | NCI-H226 > 100 µM | UO-31 > 100 µM | SK-MEL-5 > 100 µM | MCF7 40.5 µM | OVCAR-3 > 100 µM | HOP-92 > 100 µM | HCT-116 > 100 µM | K562 53.5 µM | HT-29 > 100 µM | MOLT-4 > 100 µM | U-251 24.7 µM | A549 > 100 µM

O=P1(c2ccccc2)c2ccccc2-c2ccccc21
inactive: SNB-75 68.9 µM | CCRF-CEM 55.5 µM | NCI-H226 > 100 µM | PC-3 55.3 µM | UO-31 > 100 µM | SK-MEL-5 44.4 µM | NCI-H522 > 100 µM | MCF7 > 100 µM | OVCAR-3 71 µM | HOP-92 13.9 µM | CAKI-1 81.8 µM | HCT-116 99.3 µM | K562 86.9 µM | MOLT-4 47.5 µM | A549 > 100 µM
